# Source: US11008603B2, “Method and kit for detecting pathogenic microorganism” (JAPAN SCIENCE AND TECHNOLOGY AGENCY, priority 2016, dated 2021)
# How the values were obtained:
# [1] = cited from earlier work
# [2] = Test Example 2: influence of buffering substance (DEA) concentration on fluorescence intensity of 4-MU in droplets covered with FC40 over time; type: physicochemical; details: 4 mM CaCl2, pH 6.5, 50 μM 4-MU
# Description: According to the following procedure, the influence of the concentration of a buffering substance of a hydrophilic solvent on detection sensitivity was studied. 4-MU was dissolved in a concentration of 50 μM in a buffer solution (4 mM CaCl2, pH 6.5) having a DEA concentration adjusted to 25 mM to 1M. Into the array, 30 μL of the buffer solution in which 4-MU was dissolved was introduced, to fill each of the wells with the buffer solution (see FIG. 1A). Then, into the array, 200 μL of a hydrophobic solvent (FC40) was introduced, to form a droplet of the hydrophilic solvent covered with the hydrophobic solvent in each of the wells. Time-lapse photographing was performed under a fluorescence microscope to measure fluorescence intensity of each of the droplets.
# [3] = Test Example 1: influence of pH value of hydrophilic solvent on fluorescence detection of 4-MU in droplets covered with FC40; type: physicochemical; details: 50 μM 4-MU, 33 mM DEA-HCl, 4 mM CaCl2; buffer pH set higher than pKa (pH 8 or more) within pH 6.5 to 9.0; FC40 cover
# From the text: According to the following procedure, the influence of the pH value of a hydrophilic solvent on detection sensitivity was studied.
# First, according to a report by Kim et al. (“Quantifying genetically inserted fluorescent protein in single iPS cells to monitor Nanog expression using electroactive microchamber arrays”, Lab on Chip, 2014, Issue 4, Vol. 14, and p. 730-736), a droplet array device (DAD) was produced. A cover glass (24 mm×32 mm) was washed and dried. The cover glass was then spin-coated with an amorphous fluorine resin (CYTOP 816AP, AGC Inc.), and fired at 180° C. for 1 hour. The cover glass coated with the amorphous fluorine resin was spin-coated with a positive type photoresist (AZ-4903, AZ Electronic Materials), fired at 55° C. for 3 minutes, and then further fired at 110° C. for 5 minutes. The cover glass was subjected to photolithography by use of a photomask having holes each having a diameter of 3 μm at intervals of 5 μm. The cover glass was dry-etched with oxygen plasma, and then washed to obtain as the DAD. […]
# With a CMOS camera (Neo sCMOS, Andor) connected to a fluorescence microscope (IX8, OLYMPUS), a fluorescent image of each of the droplets was photographed to measure fluorescence intensity. […] The fluorescent image was analyzed with an imaging analysis software (Meta-Morph, Molecular Devices), to calculate fluorescence intensity.
"fluorescence intensity over time ([2]; DEA 50 mM, for 10 minutes)","decrease in the fluorescence intensity over time ([2]; DEA 100 mM, for 30 minutes)","decrease in the fluorescence intensity over time ([2]; DEA 500 mM, for 30 minutes)","decrease in the fluorescence intensity over time ([2]; DEA 1 M, after subtraction of fading due to exposure)",fluorescence detection sensitivity in droplet (distribution/leakage to FC40) [3],Compound,acid dissociation constant (pKa) [1],fluorescence intensity over time ([2]; DEA 25 mM)
–,–,–,–,–,CCN(CC)c1ccc2c(-c3ccccc3C(=O)O)c3ccc(=[N+](CC)CC)cc-3oc2c1.[Cl-] [rhodamine],6.0,–
–,–,–,–,–,fluorescein,6.4,–
maintained,significantly suppressed,significantly suppressed,not observed,detected with higher sensitivity,"Cc1cc(=O)oc2cc(O)ccc12 [4MU, 4-methylumbelliferone]",7.79,decrease in the fluorescence intensity was observed
–,–,–,–,–,O=c1ccc2nc3ccc(O)cc3oc-2c1 [resorufin],6.0,–
